Assay results reported in ChEMBL document CHEMBL4616632, “Discovery of Cyclic Boronic Acid QPX7728, an Ultrabroad-Spectrum Inhibitor of Serine and Metallo-β-lactamases” (J Med Chem, 2020).

Assays:
Klebsiella pneumoniae [1] = test: Inhibition of Klebsiella pneumoniae KP1054 VIM-1 assessed as minimum concentration of compound required to reduce the MIC of biapenem to 1 ug/ml
Escherichia coli [2] = test: Inhibition of Escherichia coli KP308 SHV-5 assessed as minimum concentration of compound required to reduce the MIC of aztreonam to 4 ug/ml
Escherichia coli [3] = test: Inhibition of Escherichia coli EC302 TEM-10 assessed as minimum concentration of compound needed to reduce the MIC of aztreonam to 4 ug/ml
Klebsiella pneumoniae [4] = test: Inhibition of Klebsiella pneumoniae KP1160 IMP-26 assessed as minimum concentration of compound needed to reduce the MIC of meropenem to 1 ug/ml
Enterobacter cloacae = test: Inhibition of Enterobacter cloacae ECL1002 AmpC assessed as minimum concentration of compound needed to reduce the MIC of aztreonam to 4 ug/ml
Klebsiella pneumoniae [5] = test: Inhibition of Klebsiella pneumoniae KP1009 CTX-M-15 assessed as minimum concentration of compound required to reduce the MIC of aztreonam to 4 ug/ml
Pseudomonas aeruginosa = test: Inhibition of Pseudomonas aeruginosa PAM 2035 AmpC assessed as minimum concentration of compound needed to reduce the MIC of aztreonam to 4 ug/ml
Klebsiella pneumoniae [6] = test: Inhibition of Klebsiella pneumoniae KP1081 NDM-1 assessed as minimum concentration of compound required to reduce the MIC of biapenem to 1 ug/ml
[7] = target: Beta-lactamase (Klebsiella pneumoniae) (UniProt Q93LQ9); test: Inhibition of Klebsiella pneumoniae KP1004 KPC-2 assessed as minimum concentration of compound needed to reduce the MIC of aztreonam to 4 ug/ml
Chain of Beta-lactamase (Klebsiella pneumoniae) (Q93LQ9 as listed by the source): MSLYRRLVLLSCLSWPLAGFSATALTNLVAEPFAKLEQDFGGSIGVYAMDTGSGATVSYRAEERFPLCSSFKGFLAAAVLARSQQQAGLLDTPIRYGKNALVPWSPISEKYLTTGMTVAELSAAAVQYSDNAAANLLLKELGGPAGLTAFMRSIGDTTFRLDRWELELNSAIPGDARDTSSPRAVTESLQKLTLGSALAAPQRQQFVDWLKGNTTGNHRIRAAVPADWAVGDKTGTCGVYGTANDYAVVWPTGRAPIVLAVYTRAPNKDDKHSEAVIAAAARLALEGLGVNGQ

Structure (SMILES) | MEC (Klebsiella pneumoniae [1]) | MEC (Escherichia coli [2]) | MEC (Escherichia coli [3]) | MEC (Klebsiella pneumoniae [4]) | MEC (Enterobacter cloacae) | MEC (Klebsiella pneumoniae [5]) | MEC (Pseudomonas aeruginosa) | MEC (Klebsiella pneumoniae [6]) | MEC [7]
O=C(O)c1c(OCCF)ccc2c1OB(O)[C@@H](Sc1nncs1)C2 | 0.16 µg/mL | 5 µg/mL | 20 µg/mL | 2.5 µg/mL | > 20 µg/mL | 20 µg/mL | 20 µg/mL | 0.6 µg/mL | 5 µg/mL
Nc1nnc(S[C@H]2Cc3cccc(C(=O)O)c3OB2O)s1 | 0.16 µg/mL | 5 µg/mL | > 10 µg/mL |  | > 10 µg/mL | > 10 µg/mL |  | 0.3 µg/mL | 10 µg/mL
O=C(O)c1cccc2c1OB(O)[C@@H](Sc1ncc[nH]1)C2 | > 20 µg/mL | > 10 µg/mL | > 10 µg/mL |  | > 10 µg/mL | > 10 µg/mL |  | > 20 µg/mL | > 10 µg/mL
O=C(O)c1cccc2c1OB(O)[C@@H](Sc1c[nH]nn1)C2 | 0.6 µg/mL | 5 µg/mL | > 20 µg/mL |  | > 20 µg/mL | > 20 µg/mL |  | 0.3 µg/mL | > 20 µg/mL
O=C(O)c1c(OCc2nncs2)ccc2c1OB(O)[C@@H](Sc1nncs1)C2 | 0.3 µg/mL | 5 µg/mL | 5 µg/mL | 2.5 µg/mL | > 20 µg/mL | 20 µg/mL | > 20 µg/mL | 2.5 µg/mL | 20 µg/mL
COCCOc1ccc2c(c1C(=O)O)OB(O)[C@@H](Sc1nncs1)C2 | 0.16 µg/mL | 10 µg/mL | > 20 µg/mL | 1.25 µg/mL | > 20 µg/mL | 20 µg/mL | > 20 µg/mL | 0.6 µg/mL | 20 µg/mL
O=C(O)c1cccc2c1OB(O)[C@@H](Sc1ccccn1)C2 | > 20 µg/mL | > 10 µg/mL | > 10 µg/mL |  | > 10 µg/mL | > 10 µg/mL |  | > 20 µg/mL | > 10 µg/mL
O=C(O)c1c(OC2COC2)ccc2c1OB(O)[C@@H](Sc1nncs1)C2 | 20 µg/mL | > 20 µg/mL | > 20 µg/mL | > 20 µg/mL | > 20 µg/mL | > 20 µg/mL | > 20 µg/mL | > 20 µg/mL | > 20 µg/mL
Nc1nnc(S[C@H]2Cc3ccc(OCC(F)F)c(C(=O)O)c3OB2O)s1 | 0.3 µg/mL | > 20 µg/mL | > 20 µg/mL | 1.25 µg/mL | > 20 µg/mL | > 20 µg/mL | 20 µg/mL | 1.25 µg/mL | 10 µg/mL
NC(=O)CCS[C@H]1Cc2cccc(C(=O)O)c2OB1O | 1.25 µg/mL | > 20 µg/mL | > 20 µg/mL |  | > 20 µg/mL | > 20 µg/mL |  | 1.25 µg/mL | 5 µg/mL
O=C(O)c1c(OCC2CC2)ccc2c1OB(O)[C@@H](Sc1nncs1)C2 | 0.16 µg/mL | 10 µg/mL | 20 µg/mL | 0.3 µg/mL | > 20 µg/mL | > 20 µg/mL | 20 µg/mL | 1.25 µg/mL | > 20 µg/mL
O=C(O)c1cccc2c1OB(O)[C@@H](Sc1nccs1)C2 | 2.5 µg/mL | 10 µg/mL | > 20 µg/mL |  | > 20 µg/mL | > 20 µg/mL |  | 0.3 µg/mL | > 20 µg/mL
CSCCOc1ccc2c(c1C(=O)O)OB(O)[C@@H](Sc1nncs1)C2 | 1.25 µg/mL | 10 µg/mL | > 20 µg/mL | 0.6 µg/mL | > 20 µg/mL | > 20 µg/mL | 10 µg/mL | 2.5 µg/mL | 20 µg/mL
O=C(O)c1cccc2c1OB(O)[C@@H](Sc1nnc[nH]1)C2 | 2.5 µg/mL | > 40 µg/mL | > 40 µg/mL |  | > 40 µg/mL | 5 µg/mL |  | < 0.3 µg/mL | > 40 µg/mL
Nn1cnnc1S[C@H]1Cc2cccc(C(=O)O)c2OB1O | 0.3 µg/mL | 10 µg/mL | > 20 µg/mL |  | 5 µg/mL | 10 µg/mL |  | 0.16 µg/mL | 5 µg/mL
NC(=O)CS[C@H]1Cc2cccc(C(=O)O)c2OB1O | 2.5 µg/mL | > 10 µg/mL | > 10 µg/mL |  | > 10 µg/mL | > 10 µg/mL |  | 0.6 µg/mL | 5 µg/mL
CO[C@H]1Cc2cccc(C(=O)O)c2OB1O | 0.16 µg/mL | 2.5 µg/mL | 20 µg/mL |  | 2.5 µg/mL | 10 µg/mL |  | 0.6 µg/mL | 0.3 µg/mL
CS[C@H]1Cc2cccc(C(=O)O)c2OB1O | < 0.3 µg/mL | > 20 µg/mL | > 20 µg/mL |  | > 20 µg/mL | > 20 µg/mL |  | 0.6 µg/mL | 2.5 µg/mL
O=C(O)c1cccc2c1OB(O)[C@@H](OC1CNC1)C2 | 0.6 µg/mL | > 20 µg/mL | > 20 µg/mL |  | 2.5 µg/mL | > 20 µg/mL |  | 0.6 µg/mL | > 20 µg/mL
N=C(N)S[C@H]1Cc2cccc(C(=O)O)c2OB1O | > 20 µg/mL | > 20 µg/mL | > 20 µg/mL |  | > 20 µg/mL | > 20 µg/mL |  | > 20 µg/mL | > 20 µg/mL
O=C(O)c1c(F)ccc2c1OB(O)[C@@H](Sc1nncs1)C2 | 1.25 µg/mL | 0.3 µg/mL | 5 µg/mL | 20 µg/mL | 5 µg/mL | 10 µg/mL | 20 µg/mL | 0.6 µg/mL | 2.5 µg/mL
N#CCOc1ccc2c(c1C(=O)O)OB(O)[C@@H](Sc1nncs1)C2 | 2.5 µg/mL | 10 µg/mL | 20 µg/mL | > 20 µg/mL | > 20 µg/mL | > 20 µg/mL | > 20 µg/mL | 2.5 µg/mL | 20 µg/mL
O=C(O)c1cccc2c1OB(O)[C@@H](Sc1ncccn1)C2 | 20 µg/mL | > 20 µg/mL | > 20 µg/mL |  | > 20 µg/mL | > 20 µg/mL |  | 10 µg/mL | > 20 µg/mL
Cn1cnnc1S[C@H]1Cc2cccc(C(=O)O)c2OB1O | < 0.3 µg/mL | > 20 µg/mL | > 20 µg/mL |  | > 20 µg/mL | > 20 µg/mL |  | < 0.3 µg/mL | > 20 µg/mL
O=C(O)c1c(OC(F)F)ccc2c1OB(O)[C@@H](Sc1nncs1)C2 | 1.25 µg/mL | 2.5 µg/mL | 20 µg/mL | 20 µg/mL | > 20 µg/mL | 20 µg/mL | 20 µg/mL | 1.25 µg/mL | 5 µg/mL
Nc1nnc(S[C@H]2Cc3cccc(C(=O)O)c3OB2O)[nH]1 | < 0.3 µg/mL | > 20 µg/mL | > 20 µg/mL |  | > 20 µg/mL | > 20 µg/mL |  | < 0.3 µg/mL | > 20 µg/mL
O=C(O)c1cccc2c1OB(O)[C@@H](Sc1cccnc1)C2 | 1.25 µg/mL | > 20 µg/mL | > 20 µg/mL |  | > 20 µg/mL | > 20 µg/mL |  | 2.5 µg/mL | > 20 µg/mL
